Source: patent US12583855B2, “RET selective inhibitor, preparation method therefor and use thereof” (SHOUYAO HOLDINGS (BEIJING) CO., LTD., priority 2019, dated 2026)

Tests used:
[1] = target: T1, RET^WT (Homo sapiens, UniProt P07949); assay: In vitro enzymatic activity assay on RET^WT (HTRF); type: biochemical; settings: GST-RET^WT (658-1114 aa) 0.5 nM, ATP 25 μM
T1 construct: GST-RET^WT (658-1114 aa, final concentration of 0.5 nM)
T1 sequence (P07949 658-1114): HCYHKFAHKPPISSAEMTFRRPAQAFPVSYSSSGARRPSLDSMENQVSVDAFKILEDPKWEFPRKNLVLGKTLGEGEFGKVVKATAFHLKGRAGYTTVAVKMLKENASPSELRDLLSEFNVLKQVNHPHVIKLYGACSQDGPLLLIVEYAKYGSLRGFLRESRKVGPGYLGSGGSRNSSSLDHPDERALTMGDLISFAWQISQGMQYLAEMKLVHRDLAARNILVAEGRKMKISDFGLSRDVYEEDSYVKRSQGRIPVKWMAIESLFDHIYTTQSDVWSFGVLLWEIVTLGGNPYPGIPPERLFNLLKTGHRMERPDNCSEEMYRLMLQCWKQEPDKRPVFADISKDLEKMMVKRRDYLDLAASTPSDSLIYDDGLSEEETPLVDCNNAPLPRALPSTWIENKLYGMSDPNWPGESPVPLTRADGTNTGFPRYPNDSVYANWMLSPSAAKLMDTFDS
Procedure: 1. In Vitro Enzymatic Activity Assay for Compounds on RET^WT
The compounds were diluted 5-fold with 100% DMSO starting from 0.2 mM (7 concentrations in total), and 2 μL of each concentration was added to 48 μL of reaction buffer (50 mM HEPES pH7.5, 0.1 mM Na3VO4, 5 mM MgCl2. 1 mM DTT, 0.001% Tween 20, and 100 μg/ml BSA) for dilution and mixing.
The 384-well plate was placed in an incubator and reacted at 23° C. for 2 h before the reaction was stopped by the addition of 5 μL of TK Antibody (purchased from Cisbio) and 5 μL of Streptavidin-XL665 (purchased from Cisbio). […] The enzymatic activity signal of RET^WT was measured at 7 concentrations for each compound and the data were calculated using GraphPad Prism software to obtain the IC50 value for the compound.

[2] = target: VEGFR2 (Homo sapiens, UniProt P35968); assay: In vitro enzymatic activity assay on VEGFR2 (HTRF); type: biochemical; settings: GST-VEGFR2 0.1 nM, ATP 2.5 μM
Chain of VEGFR2 (P35968 20-1356): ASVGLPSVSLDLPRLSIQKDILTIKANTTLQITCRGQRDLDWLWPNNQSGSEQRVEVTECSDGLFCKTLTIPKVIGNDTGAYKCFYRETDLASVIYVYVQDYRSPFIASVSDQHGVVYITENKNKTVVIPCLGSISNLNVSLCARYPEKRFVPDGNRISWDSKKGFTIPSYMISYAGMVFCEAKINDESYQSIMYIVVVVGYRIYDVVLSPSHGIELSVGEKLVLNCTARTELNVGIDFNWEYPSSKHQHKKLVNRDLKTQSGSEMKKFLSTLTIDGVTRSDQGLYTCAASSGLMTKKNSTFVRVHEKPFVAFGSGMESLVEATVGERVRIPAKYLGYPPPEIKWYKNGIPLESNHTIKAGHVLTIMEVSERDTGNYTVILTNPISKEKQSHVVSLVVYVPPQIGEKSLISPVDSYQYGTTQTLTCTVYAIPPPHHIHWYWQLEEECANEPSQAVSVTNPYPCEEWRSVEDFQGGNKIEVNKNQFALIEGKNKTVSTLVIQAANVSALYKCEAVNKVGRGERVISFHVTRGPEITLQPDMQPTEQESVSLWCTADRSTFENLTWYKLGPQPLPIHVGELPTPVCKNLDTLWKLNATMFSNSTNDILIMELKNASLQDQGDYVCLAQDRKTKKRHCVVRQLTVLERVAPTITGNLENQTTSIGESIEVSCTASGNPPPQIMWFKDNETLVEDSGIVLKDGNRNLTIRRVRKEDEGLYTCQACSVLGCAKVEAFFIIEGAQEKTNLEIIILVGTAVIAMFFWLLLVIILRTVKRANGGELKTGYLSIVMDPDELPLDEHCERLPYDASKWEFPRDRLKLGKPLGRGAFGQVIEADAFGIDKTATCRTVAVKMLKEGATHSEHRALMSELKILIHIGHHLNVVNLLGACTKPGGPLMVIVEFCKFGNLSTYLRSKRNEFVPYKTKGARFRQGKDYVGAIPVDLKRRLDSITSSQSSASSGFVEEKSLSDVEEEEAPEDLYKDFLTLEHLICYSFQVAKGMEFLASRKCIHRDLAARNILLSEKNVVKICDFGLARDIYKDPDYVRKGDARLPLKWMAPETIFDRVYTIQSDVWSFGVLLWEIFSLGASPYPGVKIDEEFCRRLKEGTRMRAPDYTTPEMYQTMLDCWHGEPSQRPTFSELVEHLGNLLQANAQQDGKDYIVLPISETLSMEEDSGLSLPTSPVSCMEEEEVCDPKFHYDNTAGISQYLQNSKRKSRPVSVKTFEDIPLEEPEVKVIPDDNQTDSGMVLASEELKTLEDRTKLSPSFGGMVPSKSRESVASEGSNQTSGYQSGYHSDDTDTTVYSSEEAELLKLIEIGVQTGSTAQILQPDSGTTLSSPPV
Procedure: 3. n Vitro Enzymatic Activity Assay for Compounds on VEGFR2
The compounds were diluted 5-fold with 100% DMSO starting from 1 mM (7 concentrations in total), and 2 μL of each concentration was added to 48 μL of reaction buffer (50 mM HEPES pH 7.5, 0.1 mM Na3VO4, 5 mM MgCl2, 1 mM MnCl2, 1 mM DTT, 0.001% Tween 20, and 100 μg/ml BSA) for dilution and mixing. 2.5 μL of compounds and 5 μL of GST-VEGFR2 (final concentration of 0.1 nM) were added to a 384-well plate (OptiPlate-384, purchased from PerkinElmer), the mixture was mixed by centrifugation, and 2.5 μL of ATP (final concentration of 2.5 μM) and TK Peptide Substrate mixture (final concentration of 1 μM, purchased from Cisbio) were added to start the reaction, with a total reaction volume of 10 μL. The 384-well plate was placed in an incubator and reacted at 23° C. for 1.5 h before the reaction was stopped by the addition of 5 μL of TK Antibody (purchased from Cisbio) and 5 μL of Streptavidin-XL665 (purchased from Cisbio). After further incubation in the incubator for 1 h. fluorescence values (excitation at 320 nm, detecting emitted light at 665 nm and 620 nm, and a ratio of the two as an enzyme activity signal) were read on Envision (purchased from PerkinElmer). The enzymatic activity signal of VEGFR2 was measured at 7 concentrations for each compound and the data were calculated using GraphPad Prism software to obtain the IC50 value for the compound.

| IC50 [1] [nM] | IC50 [2] [nM] | Compound |
| --- | --- | --- |
| 0.57 | 10.1 | CS(=O)(=O)c1ccccc1CN1CCN(c2ccc(-c3cc(-c4cnn(C(F)F)c4)cn4ncc(C#N)c34)cn2)CC1 [Example 48, 6-(1-difluoromethyl-1Hpyrazol-4-yl)-4-(6-(4-(2-(methylsulfonyl)benzyl)piperazin-1-yl)pyridin-3-yl)pyrazolo[1,5-a]pyridine-3-carbonitrile] |
| 0.94 | 18.2 | CS(=O)(=O)c1ccc(CN2CCN(c3ccc(-c4cc(-c5cnn(C(F)F)c5)cn5ncc(C#N)c45)cn3)CC2)cc1 [Example 49, 6-(1-difluoromethyl-1Hpyrazol-4-yl)-4(6-(4-(4-(methylsulfonyl)benzyl)piperazin-1-yl)pyridin-3-yl)pyrazolo[1,5-a]pyridine-3-carbonitrile] |
| 2.96 |  | CS(=O)(=O)c1ccc(CN2CCN(c3ccc(-c4cc(-c5cnn(C(F)F)c5)cn5ncc(C#N)c45)cn3)CC2)cn1 [Example 63, 6-(1-(difluoromethyl)-1Hpyrazol-4-yl)-4-(6-(4-((6-(methylsulfonyl)pyridin-3-yl)methyl)piperazin-1-yl)pyridin-3-yl)pyrazolo[1,5-a]pyridine-3-carbonitrile] |
| 0.943 |  | CSc1ccc(CN2CCN(c3ccc(-c4cc(-c5cnn(C(F)F)c5)cn5ncc(C#N)c45)cn3)CC2)cn1 [Example 75, 6-(1-(difluoromethyl)-1Hpyrazol-4-yl)-4-(6-(4-((6-(methylthio)pyridin-3-yl)methyl)piperazin-1-yl)pyridin-3-yl) pyrazolo[1,5-a] pyridine-3-carbonitrile] |
| 1.58 |  | CS(=O)(=O)c1ccc(CN2CCN(c3ccc(-c4cc(-c5cnn(C(F)F)c5)cn5ncc(C#N)c45)cn3)CC2)nc1 [Example 80, 6-(1-(difluoromethyl)-1Hpyrazol-4-yl)-4-(6-(4-((5-(methylsulfonyl)pyridin-2-yl)methyl)piperazin-1-yl)pyridin-3-yl) pyrazolo[1,5-a] pyridine-3-carbonitrile] |
| 1.33 |  | CSc1ccc(CN2CCN(c3ccc(-c4cc(-c5cnn(C(F)F)c5)cn5ncc(C#N)c45)cn3)CC2)cc1 [Example 81, 4-(6-(4-(4-(methylthio)benzyl)piperazin-1-yl)pyridin-3-yl)-6-(1-(difluoromethyl)-1Hpyrazol-4-yl)pyrazolo[1,5-a]pyridine-3-carbonitrile] |

Continued, compound first:

| Compound | IC50 [1] [nM] | IC50 [2] [nM] |
| --- | --- | --- |
| CSc1ccc(CN2C3CC2CN(c2ccc(-c4cc(OCC(C)(C)O)cn5ncc(C#N)c45)cn2)C3)cn1 [Example 11, 6-(2-hydroxy-2-methylpropoxy)-4-(6-(6-((6-(methylthio)pyridin-3-yl)methyl)-3,6-diazabicyclo[3.1.1]heptan-3-yl)pyridin-3-yl)pyrazolo[1,5-a]pyridine-3-carbonitrile] | 1.73 | 37 |
| CCSc1ccc(CN2CCN(c3ccc(-c4cc(-c5cnn(C)c5)cn5ncc(C#N)c45)cn3)CC2)cn1 [Example 18, 6-(1-methyl-1Hpyrazol-4-yl)-4(6-(4-((6-(ethylthio)pyridin-3-yl)methyl)piperazin-1-yl)pyridin-3-yl)pyrazolo[1,5-a]pyridine-3-carbonitnile] |  | 13 |
| COc1ccc(CN2CCN(c3ccc(-c4cc(N5CCOCC5)cn5ncc(C#N)c45)cn3)CC2)cn1 [Example 19, 6-(morpholino-1-yl)-4-(6-(4-((6-methoxypyridin-3-yl)methyl)piperazin-1-yl)pyridin-3-yl)pyrazolo[1,5-a]pyridine-3-carbonitrile] | 0.636 | 94 |
| COc1ccc(CN2C3CC2CN(c2ccc(-c4cc(N5CC(OC)C5)cn5ncc(C#N)c45)cn2)C3)cn1 [Example 27, 6-(3-methoxyazetidin-1-yl)-4-(6-(6-((6-methoxypyridin-3-yl)methyl)-3,6-diazabicyclo[3.1.1]heptan-3-yl)pyridin-3-yl)pyrazolo[1,5-a]pyridine-3-carbonitrile] | 0.536 | 2.28 |
| CC(C)(O)COc1cc(-c2ccc(N3CC4CC(C3)N4Cc3ccc(S(C)(=O)=O)cc3)nc2)c2c(C#N)cnn2c1 [Example 38, 6-(2-hydroxy-2-methylpropoxy)-4-(6-(6-(4-(methylsulfonyl)benzyl)-3,6-diazabicyclo[3.1.1]heptan-3-yl)pyridin-3-yl)pyrazolo[1,5-a]pyridine-3-carbonitrile] | 0.419 | 40.3 |
| CS(=O)(=O)c1ccc(CN2CCN(c3ccc(-c4cc(N5CC(C#N)C5)cn5ncc(C#N)c45)cn3)CC2)cc1 [Example 40, 6-(3-cyanoazetidin-1-yl)-4-(6-(4-(4-(methylsulfonyl)benzyl)piperazin-1-yl)pyridin-3-yl)pyrazolo[1,5-α]pyridin-3-carbonitrile] | 1.31 |  |
| CCn1cc(-c2cc(-c3ccc(N4CC5CC(C4)N5Cc4ccc(S(C)(=O)=O)cc4)nc3)c3c(C#N)cnn3c2)cn1 [Example 44, 6-(1-ethyl-1Hpyrazol-4-yl)-4-(6-(6-(4-(methylsulfonyl)benzyl)-3,6-diazabicyclo[3.1.1]heptan-3-yl)pyridin-3 yl)pyrazolo[1,5-a]pyridine-3-carbonitrile] | 0.247 |  |
| CSc1ccc(CN2C3CC2CN(c2ccc(-c4cc(-c5cnn(C)c5)cn5ncc(C#N)c45)cn2)C3)cn1 [Example 50, 6-(1-methyl-1Hpyrazol-4-yl)-4-(6-(6-((6-(methylthio)pyridin-3-yl)methyl)-3,6-diazabicyclo[3.1.1]heptan-3-yl)pyridin-3-yl)pyrazolo[1,5-a]pyridine-3-carbonitrile] | 0.181 |  |
| CSc1cccc(CN2CCN(c3ccc(-c4cc(-c5cnn(C)c5)cn5ncc(C#N)c45)cn3)CC2)n1 [Example 51, 6-(1-methyl-1Hpyrazol-4-yl)-4-(6-(4-((6-(methylthio)pyridin-2-yl)methyl)piperazin-1-yl)pyridin-3-yl)pyrazolo[1,5-a]pyridine-3-carbonitrile] | 0.328 | 6.2 |
| CN(C)C(=O)Cn1cc(-c2cc(-c3ccc(N4CCN(Cc5ccc(S(C)(=O)=O)cc5)CC4)nc3)c3c(C#N)cnn3c2)cn1 [Example 54] | 1.07 | 10.1 |
| Cn1cc(-c2cc(-c3ccc(N4CC5CCC(C4)N5Cc4ccc(S(C)(=O)=O)cc4)nc3)c3c(C#N)cnn3c2)cn1 [Example 57, 6-(1-methyl-1Hpyrazol-4-yl) 4-(6-(8-(4-(methylsulfonyl)benzyl)-3,8-diazabicyclo[3.2.1]octan-3-yl)pyridin-3-yl)pyrazolo[1,5-a]pyridine-3-carbonitrile] |  | 8.94 |
| COc1ncc(CN2C3CC2CN(c2ccc(-c4cc(N5CC(C)(O)C5)cn5ncc(C#N)c45)cn2)C3)cn1 [Example 58, 6-(3-hydroxy-3-methylazetidin-1-yl)-4-(6-(6-((2-methoxypyrimidin-5-yl)methyl)-3,6-diazabicyclo[3.1.1]heptan-3-yl)pyridin-3-yl)pyrazolo[1,5-a]pyridine-3-carbonitrile] | 1.34 |  |
| CSc1ccc(CN2C3CC2CN(c2ccc(-c4cc(-c5cnn(C)c5)cn5ncc(C#N)c45)cn2)C3)cc1 [Example 59, 6-(1-methyl-1Hpyrazol-4-yl)-4-(6-(6-(4-(methylthio)benzyl)-3,6-diazabicyclo[3.1.1]heptan-3-yl)pyridin-3-yl)pyrazolo[1,5-a]pyridine-3-carbonitrile] | 0.066 | 0.154 |
| COC/C=C/C(=O)N1C2CC1CN(c1ccc(-c3cc(-c4cnn(C(F)F)c4)cn4ncc(C#N)c34)cn1)C2 [Example 62, (E)-6-(1-(difluoromethyl)-1Hpyrazol-4-yl)-4-(6-(6-(4-methoxybut-2-enoyl)-3,6-diazabicyclo[3.1.1]heptan-3-yl)pyridin-3-yl)pyrazolo[1,5-a]pyridine-3-carbonitrile] | 1.11 |  |
